Laboratory results taken from patent US20260042762A1 (Kymera Therapeutics, Inc., priority 2018, published 2026).
Structures can show the parent of a compound that is named as a salt.

Molecular target: T1, MerTK (Homo sapiens, UniProt Q12866)
T1 construct: endogenous in cells; host or cells: Jurkat cells
T1 sequence (Q12866 21-999): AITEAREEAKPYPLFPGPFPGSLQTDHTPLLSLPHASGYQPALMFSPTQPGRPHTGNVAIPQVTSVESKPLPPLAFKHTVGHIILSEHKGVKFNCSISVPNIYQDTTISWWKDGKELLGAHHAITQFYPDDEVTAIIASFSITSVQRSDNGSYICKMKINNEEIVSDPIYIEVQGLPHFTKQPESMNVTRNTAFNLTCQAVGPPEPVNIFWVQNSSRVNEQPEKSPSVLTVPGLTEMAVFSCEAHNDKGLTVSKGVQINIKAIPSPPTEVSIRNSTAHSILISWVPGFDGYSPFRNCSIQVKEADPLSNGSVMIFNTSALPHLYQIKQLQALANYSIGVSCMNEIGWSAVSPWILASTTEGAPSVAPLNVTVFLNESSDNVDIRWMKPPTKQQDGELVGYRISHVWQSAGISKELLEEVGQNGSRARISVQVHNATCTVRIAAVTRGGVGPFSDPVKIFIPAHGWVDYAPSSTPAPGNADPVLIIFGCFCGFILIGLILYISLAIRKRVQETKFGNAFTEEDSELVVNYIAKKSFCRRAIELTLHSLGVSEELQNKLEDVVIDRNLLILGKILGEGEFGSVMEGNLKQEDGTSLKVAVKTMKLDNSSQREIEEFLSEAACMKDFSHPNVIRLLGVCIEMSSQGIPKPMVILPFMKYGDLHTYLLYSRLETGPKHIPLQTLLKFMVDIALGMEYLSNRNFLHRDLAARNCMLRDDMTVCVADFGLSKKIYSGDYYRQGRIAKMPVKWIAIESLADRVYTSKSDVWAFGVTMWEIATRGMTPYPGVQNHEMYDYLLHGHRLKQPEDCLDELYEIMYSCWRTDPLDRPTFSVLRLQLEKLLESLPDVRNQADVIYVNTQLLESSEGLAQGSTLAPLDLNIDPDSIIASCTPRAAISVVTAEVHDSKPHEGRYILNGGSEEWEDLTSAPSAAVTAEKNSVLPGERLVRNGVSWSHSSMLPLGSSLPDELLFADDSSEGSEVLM
Test: MerTk degradation in Jurkat cells (Western blot)
Format: cell-based
Conditions: Jurkat, 4 h, 0.001-1 μM, 4 hour-incubation at 37° C., read-out: Jurkat Max % MerTK Degradation
In short: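 Jurkat cells treated 4 h at 37 °C with compound at 0.001-1 μM final. RIPA lysates quantified by BCA, then MerTK probed by Western blot against actin loading control with IR-dye secondaries and Odyssey imaging.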

Row | SMILES | Dmax
1 | C[C@@H](CC(F)(F)F)Nc1ncc2c(-c3ccc(CN4CCN(C5CC(OCCc6ccc7c(c6)n(C)c(=O)n7C6CCC(=O)NC6=O)C5)CC4)cc3)cn([C@H]3CC[C@H](O)CC3)c2n1 (stereo partly drawn) [I-195, 3-[3-methyl-2-oxo-5-[2-(3-[4-[(4-[7-[trans-4-hydroxycyclohexy1]-2-[[(2S)-4,4,4-trifluorobutan-2-yl]amino]pyrrolo[2,3-d]pyrimidin-5-yl]phenyl)methyl]piperazin-1-yl]cyclobutoxy)ethyl]-1,3-benzodiazol-1-yl]piperidine-2,6-dione] | 20 to 50%
2 | Cn1c(=O)n([C@H]2CCC(=O)NC2=O)c2ccc(CCCOCCCN3CCN(Cc4ccc(-c5cn(C6CCCCC6)c6nc(NCCC(F)(F)F)ncc56)cc4)CC3)cc21 [I-83, 3-[5-[3-(3-[4-[(4-[7-cyclohexyl-2-[(3,3,3-trifluoropropyl)amino]-7H-pyrrolo[2,3-d]pyrimidin-5-yl]phenyl)methyl]piperazin-1-yl]propoxy)propyl]-3-methyl-2-oxo-2,3-dihydro-1H-1,3-benzodiazol-1-yl]piperidine-2,6-dione;] | > 50%
3 | CN1CCN(Cc2ccc(-c3ccc(CO[C@H]4CCC[C@@H]4NC(=O)c4cc(-c5cnn(CCOCCOCCOCCCc6cccc7c6n(C)c(=O)n7C6CCC(=O)NC6=O)c5)cnc4N)cc3)cc2)CC1 (stereo partly drawn) [I-204, 2-Amino-5-(1-[2-[2-(2-[3-[1-(2,6-dioxopiperidin-3-yl)-3-methyl-2-oxo-1,3-benzodiazol-4-yl]propoxy]ethoxy)ethoxy]ethyl]pyrazol-4-yl)-N-[(1S,2S)-2-([4-[(4-methylpiperazin-1-yl)methyl]-[1,1-biphenyl]-4-yl]methoxy)cyclopentyl]pyridine-3-carboxamide] | 20 to 50%
4 | CCCCNc1ncc2c(-c3ccc(CNCCCCOCCCCc4ccc5c(c4)n(C)c(=O)n5[C@H]4CCC(=O)NC4=O)cc3)cn([C@H]3CC[C@H](O)CC3)c2n1 [I-53, 3-[5-(4-[4-[([4-[2-(butylamino)-7-[trans-4-hydroxycyclohexyl]-7H-pyrrolo[2,3-d]pyrimidin-5-yl]phenyl]methyl)amino]butoxy]butyl)-3-methyl-2-oxo-2,3-dihydro-1H-1,3-benzodiazol-1-yl]piperidine-2,6-dione hydrochloride] | > 50%
5 | CCCCNc1ncc2c(-c3ccc(CN4CCN(CCOCCOCCCc5ccc6c(c5)n(C)c(=O)n6[C@H]5CCC(=O)NC5=O)CC4)cc3)nn([C@H]3CC[C@H](O)CC3)c2n1 [I-50, 3-[5-[3-(2-[2-[4-([4-[6-(butylamino)-1-[trans-4-hydroxycyclohexyl]-1H-pyrazolo[3,4-d]pyrimidin-3-yl]phenyl]methyl)piperazin-1-yl]ethoxy]ethoxy)propyl]-3-methyl-2-oxo-2,3-dihydro-1H-1,3-benzodiazol-1-y1]piperidine-2,6-dione; formic acid] | > 50%
6 | CCCCNc1ncc(-c2ccc(CN3CCN(C(=O)COCCOCCOCCOCCNc4cccc5c4C(=O)N(C4CCC(=O)NC4=O)C5=O)CC3)cn2)c(N[C@H]2CC[C@H](O)CC2)n1 (stereo partly drawn) [I-22, 4-[15-[4-([6-[2-(Butylamino)-4-[[trans-4-hydroxycyclohexyl]amino]pyrimidin-5-yl]pyridin-3-yl]methyl)piperazin-1-yl]-15-oxo-4,7,10,13-tetraoxa-1-azapentadecan-1-yl]-2-(2,6-dioxopiperidin-3-yl)-2,3-dihydro-1H-isoindole-1,3-dione] | > 50%
7 | COCC(C)Nc1ncc2c(-c3ccc(CN4CCN(CCCCCNCCN[C@H](C(=O)N5C[C@H](O)C[C@H]5C(=O)NCc5ccc(-c6scnc6C)cc5)C(C)(C)C)CC4)cc3)cn([C@H]3CC[C@H](O)CC3)c2n1 (stereo partly drawn) [I-3, (2S,4R)-4-Hydroxy-1-[(2S)-2-([2-[(5-[4-[(4-[2-[(1-methoxypropan-2-yl)amino]-7-(trans-4-hydroxycyclohexyl)-7H-pyrrolo[2,3-d]pyrimidin-5-yl]phenyl)methyl]piperazin-1-yl]pentyl)amino]ethyl]amino)-3,3-dimethylbutanoyl]-N-[[4-(4-methyl-1,3-thiazol-5-yl)phenyl]methyl]pyrrolidine-2-carboxamide] | < 20%
8 | CN1CCN(Cc2ccc(-c3ccc(CO[C@H]4CCC[C@@H]4NC(=O)c4cc(-c5cnn(CCOCCOCCCc6cccc7c6n(C)c(=O)n7C6CCC(=O)NC6=O)c5)cnc4N)cc3)cc2)CC1 (stereo partly drawn) [I-184, 2-Amino-5-[1-[2-(2-[3-[1-(2,6-dioxopiperidin-3-yl)-3-methyl-2-oxo-1,3-benzodiazol-4-yl]propoxy]ethoxy)ethyl]pyrazol-4-yl]-N-[(1S,2S)-2-([4-[(4-methylpiperazin-1-yl)methyl]-[1,1-biphenyl]-4-yl]methoxy)cyclopentyl]pyridine-3-carboxamide] | 20 to 50%

Results, then the compound that gave them:

Row | Dmax | SMILES
9 | > 50% | Cn1c(=O)n([C@H]2CCC(=O)NC2=O)c2ccc(CCCOCCOCCNCc3ccc(-c4cn([C@H]5CC[C@H](O)CC5)c5nc(NCCC(F)(F)F)ncc45)cc3)cc21 [I-48, 3-(3-methyl-2-oxo-5-[3-[2-(2-[[(4-[7-[trans-4-hydroxycyclohexyl]-2-[(3,3,3-trifluoropropyl)amino]-7H-pyrrolo[2,3-d]pyrimidin-5-y1]phenyl)methyl]amino]ethoxy)ethoxy]propyl]-2,3-dihydro-1H-1,3-benzodiazol-1-y1)piperidine-2,6-dione]
10 | > 50% | Cn1c(=O)n([C@H]2CCC(=O)NC2=O)c2ccc(CCCCN3CCC(N4CCN(Cc5ccc(-c6cn([C@H]7CC[C@H](O)CC7)c7nc(NCCC(F)(F)F)ncc67)cc5)CC4)CC3)cc21 [I-120, 3-[3-methyl-2-oxo-5-[4-(4-[4-[(4-[7-[trans-4-hydroxycyclohexyl]-2-[(3,3,3-trifluoropropyl)amino]-7H-pyrrolo[2,3-d]pyrimidin-5-yl]phenyl)methyl]piperazin-1-yl]piperidin-1-yl)butyl]-2,3-dihydro-1H-1,3-benzodiazol-1-yl]piperidine-2,6-dione]
11 | < 20% | CN1CCN(Cc2ccc(-c3ccc(CO[C@H]4CCC[C@@H]4NC(=O)c4cc(-c5cnn(CCOCCCc6cccc7c6n(C)c(=O)n7C6CCC(=O)NC6=O)c5)cnc4N)cc3)cc2)CC1 (stereo partly drawn) [I-218, 2-Amino-5-[1-(2-[3-[1-(2,6-dioxopiperidin-3-yl)-3-methyl-2-oxo-1,3-benzodiazol-4-yl]propoxy]ethyl)pyrazol-4-yl]-N-[(1S,2S)-2-([4-[(4-methylpiperazin-1-yl)methyl]-[1,1-biphenyl]-4-yl]methoxy)cyclopentyl]pyridine-3-carboxamide]
12 | < 20% | Cn1c(=O)n([C@H]2CCC(=O)NC2=O)c2ccc(CCOCCN3CCN(Cc4cn([C@H]5CC[C@H](O)CC5)c5nc(NCCC(F)(F)F)ncc45)CC3)cc21 [I-147, 3-[3-methyl-2-oxo-5-(2-[2-[4-([7-[(1r,4r)-4-hydroxycyclohexyl]-2-[(3,3,3-trifluoropropyl)amino]pyrrolo[2,3-d]pyrimidin-5-y1]methyl)piperazin-1-yl]ethoxy]ethyl)-1,3-benzodiazol-1-yl]piperidine-2,6-dione]
13 | > 50% | CCC[C@H](C)Nc1ncc2c(-c3ccc(CN4CCN(CCCO[C@H]5CCN(Cc6ccc7c(c6)n(C)c(=O)n7C6CCC(=O)NC6=O)C5)CC4)cc3)cn([C@H]3CC[C@H](O)CC3)c2n1 (stereo partly drawn) [I-177, 3-(3-methyl-2-oxo-5-[[(3S)-3-(3-[4-[(4-[2-[(2S)-pentan-2-ylamino]-7-[trans-4-hydroxycyclohexyl]pyrrolo[2,3-d]pyrimidin-5-yl]phenyl)methyl]piperazin-1-yl]propoxy)pyrrolidin-1-yl]methyl]-1,3-benzodiazol-1-yl)piperidine-2,6-dione]
